Six molecules from patent US7247649B2, “Oxazoles, their manufacture and use as pharmaceutical agents” (Hoffmann-La Roche Inc., priority 2003, dated 2007) can be followed below.

Data set [1] relates to A549 cells (human lung carcinoma cell line). As to the kind of experiment: A549 MTT cell proliferation assay (HER-signalling pathway inhibitors). The data set is classed as cell-based. The conditions noted are these: for pIC50: Homo sapiens, A549 cells, 5 days (120 h) incubation, MTT readout at 550 nm, 3 μM to 0.15 nM; for activity (in words): reference compound in the A549 biological assay. How it is done:
A549 cells (human lung carcinoma cell line) were cultivated in RPMI 1640, 2.5% FCS, 2 mM Glutamine, 100 u/ml Penicillin, 100 μg/ml Streptomycin. For the assay the cells were seeded in 384 well plates, 900 cells per well, in the same medium. The next day compounds (dissolved 10 mM in DMSO) were added in various concentrations ranging from 3 μM to 0.15 nM (10 concentrations, 1:3 diluted). After 5 days the MTT assay was done mainly according to the instructions of the manufacturer (Cell proliferation kit I, MTT, from Roche Molecular Biochemicals). In brief: MTT labeling reagent was added to a final concentration of 0.5 mg/ml, added and incubated for 4 hrs at 37 C, 5% CO2. During this incubation time purple formazan crystals are formed. After addition of the solubilization solution (20% SDS in 0.02 M HCl) the plates were incubated overnight at 37° C., 5% CO2. After careful mixing plates were measured in Victor 2 (scanning multiwell spectrophotometer, Wallac) at 550 nm.
A decrease in number of living cells results in a decrease in the total metabolic activity in the sample. The decrease directly correlates to the amount of purple color resulting from the solubilization of the purple formazan crystals.
A549: 900 cells in 60 μl per well of 384 well plate (Greiner)
Medium: RPMI 1640, 2.5% FCS, glutamine, pen/strep.
Induction: • Dilution of compound in DMSO: 3 μl 10 mM+27 μl DMSO, dilute 1:3 • Add 2 μl of compound dilution row to 95 ul of medium • Add 10 μl of compound dilution to 60 μl medium in test plate→0.3% DMSO per well • Incubate 120 h (5 days) at 37° C., 5% CO2
Analysis: • Add 7 μl MTT (5 mg 7 ml/well), incubate 4 h at 37° C. • Add 30 μl lysis buffer (20% SDS, 0.04 N HCl) per well • Incubate overnight at 37° C.
Measurement: • Victor 2, 550 nm • Determination of IC50 was done using XL-fit.

pIC50: −log10 of the molar value.

For the molecule `Fc1cc(/C=C/c2nc(COc3ccc(CCCCn4ccnn4)cc3)co2)ccc1Cl` [Example 1, 1-[4-(4-{2-[2-(E)-(4-Chloro-3-fluoro-phenyl)-vinyl]-oxazol-4-ylmethoxy}-phenyl)-butyl]1H-[1,2,3]triazole], the melting point – broadly, the temperature, or range, at which the solid turns liquid – lay within 146 to 149 °C. In addition, in data set [1], the pIC50 (in general, −log10 of the IC50, conventionally taken in molar units) was 6.34 and the “activity (in words)” value is “do not have reasonable activity”.

Take `Fc1cc(Cl)ccc1/C=C/c1nc(COc2ccc(CCCCn3ccnn3)cc2)co1` [Example 2, 1-[4-(4-{2-[2-(E)-(4-Chloro-2-fluoro-phenyl)-vinyl]-oxazol-4-ylmethoxy}-phenyl)-butyl]-1H-[1,2,3]triazole]: the pIC50 in data set [1] is over 8.30. The same measure, in the same setting: then `Fc1cc(C(F)(F)F)ccc1/C=C/c1nc(COc2ccc(CCCCn3ccnn3)cc2)co1` [Example 3, 1-[4-(4-{2-[2-(E)-(2-Fluoro-4-trifluoromethyl-phenyl)-vinyl]-oxazol-4-ylmethoxy}-phenyl)-butyl]-1H-[1,2,3]triazole], with 8.70. For the molecule `FC(F)(F)c1cccc(/C=C/c2nc(COc3ccc(CCCCn4ccnn4)cc3)co2)c1` [Example 4, 1-[4(4-{2-[2-(E)-(3-Trifluoromethyl-phenyl)-vinyl]-oxazol-4-ylmethoxy}-phenyl)-butyl]-1H-[1,2,3]triazole], in data set [1], the pIC50 is 5.45 and the “activity (in words)” value is “inactive”.

On to `Clc1ccc(/C=C/c2nc(COc3ccc(CCCCn4ccnn4)cc3)co2)cc1Cl` [Example 5, 1-[4-(4-{2-[2-(E)-(3,4-Dichloro-phenyl)-vinyl]-oxazol-4-ylmethoxy}-phenyl)-butyl]-1H-[1,2,3]triazole], for which, in data set [1], the pIC50 was 6.05 and the “activity (in words)” value is “do not have reasonable activity”. The like results for `FC(F)(F)c1ccc(C=Cc2nc(COc3ccc(CCCCn4ccnn4)cc3)co2)cc1` [reference, 1-[4-(4-{2-[2-(4-trifluoromethyl-phenyl)-vinyl]-oxazol-4-ylmethoxy}-phenyl)-butyl]-1H-[1,2,3]triazole, reference compound] were, in that order, 8.15 and “less activity than the compounds of the present invention”.
